Experimental data taken from patent publication US20240391954A1, “MC4R AGONIST PEPTIDES” (The Regents of the University of Michigan, priority 2021, published 2024).
“And” between values parts separate entries of the source, which are not always exact repeats. Equal values may be shown once. Positions of bridges follow the written chain, without caps; N, C: chain ends. Non-standard residues stand in square brackets, D forms with d. Residues, ends and D or L forms follow the SMILES beside them. Nle = CCCC[C@H](N)C(=O)O

Assays:
human MC4R = target: T1, human MC4R (Homo sapiens, UniProt P32245); experiment: split-luciferase cAMP sensor assay, agonist mode (measurement window 1), hMC4R; format: cell-based; details: % maximal activation, agonist mode; read-out: MC4R cAMP % max activation
T1 construct: host or cells: HEK-293 cells stably expressing the GScAMP22F split-luciferase cAMP sensor and hMC4R, G418 selection
T1 sequence (P32245 whole entry): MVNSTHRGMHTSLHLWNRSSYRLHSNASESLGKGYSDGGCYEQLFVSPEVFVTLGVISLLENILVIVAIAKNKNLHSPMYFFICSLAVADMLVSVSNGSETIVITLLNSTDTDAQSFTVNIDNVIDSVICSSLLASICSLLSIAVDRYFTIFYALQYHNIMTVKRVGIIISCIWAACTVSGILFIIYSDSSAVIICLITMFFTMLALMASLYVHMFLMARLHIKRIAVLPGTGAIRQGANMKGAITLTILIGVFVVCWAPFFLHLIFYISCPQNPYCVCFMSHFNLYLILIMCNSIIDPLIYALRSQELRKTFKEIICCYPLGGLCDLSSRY
Method in brief: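 EC50 values come from a four-parameter variable-slope fit of luminescence in measurement window 1, capturing direct peptide effects on receptor-expressing cells with a cAMP22f luciferase sensor. Cells were preloaded with 4% D-luciferin, serum-free medium; 20 μM forskolin normalized for cell number and transducer efficiency.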

Mouse plasma stability = format: in vitro ADME; details: pooled mouse plasma, 37° C.
Method: FIG. 3. Results of plasma stability testing for control peptides. Compounds shown were incubated in mouse plasma at 37° C. at 1 μM concentrations. 40 ul aliquots were removed at the times indicated and the reactions stopped with the addition of 160 μL cold acetonitrile containing 200 ng/ml of peptide internal standard (IS). The incubation solution was centrifuged at 3500 rpm for 10 minutes to precipitate protein. LC/MS/MS analysis was used to determine the % peptide remaining.
Pooled mouse plasma was prepared and stored at −80° C, prior to use, 396 μL mouse plasma was incubated at 37° C. for 5 minutes in 1.5 mL microcentrifuge tubes. 4 μL of 100 μM test or control compound/peptide was added to each tube and incubated for 0.5, 15, 30, 60, 120, or 240 minutes. An aliquot of 40 μL of each reaction was stopped by the addition of 4 volume of cold acetonitrile containing 200 ng/mL of […] solution was centrifuged at 3500 rpm for 10 minutes to precipitate protein. The supernatant was used for LC/MS/MS analysis. The natural log peak area ratio (compound peak area/internal standard peak area) was plotted against time and the gradient of the line determined.

[1] = Plasma protein binding (Centrifree ultrafiltration); format: in vitro ADME
Method: Solutions of test compound in DMSO were prepared at 1 mM, 100 uM and 10 uM, 5 ul of each solution of test compound was added to 495 uL plasma, and incubated at 25° C. for 5 min. Sample was added to a Centrifree® device, then centrifuged at 2000× g for 20 min to obtain desired filtrate volume. Initial plasma samples and ultrafiltrates were subjected to LC-MS/MS. % Free peptide=(concentration of ultrafiltrates/concentration of plasma)×100%. % Bound=100%−% Free

[2] = Pharmacokinetics: plasma and brain concentration after IP injection; format: in vivo, mouse; details: IP 15 mg/kg; for Brain concentration, individual mice 1-3 / Plasma concentration, individual mice 1-3: 15 mg/kg
Method: FIG. 5. Pharmacokinetic data for an exemplary peptide relative to setmelanotide. Peptides at 1.5 mg/mL in PBS containing 10% DMSO and 10% PEG-400 were given by IP injection (15 mg/kg) to female CD-1 mice (n=15). At the given time points (0.5 h, 2 h, 4 h, 7 h and 24 h), brain samples were taken out and frozen at −80° C. immediately for later preparation and analysis, and blood samples were collected using heparinized calibrated pipettes. Blood samples were centrifuged at 15000 rpm for 10 min. Subsequently, blood plasma was collected from the upper layer. The plasma was frozen at −80° C. for later analysis. Peptide concentrations at times indicated were determined by LC MS/MS, using non-zero standards in blank Plasma and Brain Samples.
The drug at 1.5 mg/mL in PBS containing 10% DMSO and 10% PEG-400 was given by IP injection (15 mg/kg). At the given time points (0.5 h, 2 h, 4 h, 7 h and 24 h), brain samples were taken out and frozen at −80° C. immediately for later preparation and analysis, and blood samples were collected using heparinized calibrated pipettes. Blood samples were centrifuged at 15000 rpm for 10 min. Subsequently, blood plasma was collected from the upper layer. The plasma was frozen at −80° C. for later analysis.
The analytical curves were constructed using non-zero standards in the blank Plasma and Brain Samples. A blank sample (matrix sample processed without internal standard) was used to exclude contamination. The linear regression analysis of CTX1227/setmelanotide were performed by plotting the peak area ratio (y) against the CTX1227/setmelanotide concentration (x) in ng/mL, respectively.

Structure (SMILES): CCCC[C@H](NC(=O)[C@H](CCCNC(=N)N)NC(C)=O)C(=O)N[C@H]1CSSC[C@@H](C(N)=O)NC(=O)[C@H](Cc2c[nH]c3ccccc23)NC(=O)[C@H](CCCNC(=N)N)NC(=O)[C@@H](Cc2ccccc2)NC(=O)[C@H](Cc2c[nH]cn2)NC1=O [CTX-1227, Arg-Nle-cyclo(Cys-His-D-Phe-Arg-Trp-Cys)] (Ac-R[Nle]CH[dF]RWC-NH2; disulfide 3-8 (inferred))
- Emax (human MC4R): 103%
- half-life at 1 µM (Mouse plasma stability): 1.05 h
- fraction unbound at 5 min, 0.1 µM ([1]; 0.1 uM): 0.5
- fraction unbound at 5 min, 1 µM ([1]; 1.0 uM): 0.53
- fraction unbound at 5 min, 10 µM ([1]; 10.0 uM): 0.46
- Brain concentration, individual mice 1-3 ([2]; 0.5 h, brain, individual animals): 99 ng/g and 263.5 ng/g and 182 ng/g
- Plasma concentration, individual mice 1-3 ([2]; 0.5 h, plasma, individual animals): 20900 ng/mL and 25000 ng/mL and 68700 ng/mL
- Brain concentration, individual mice 1-3 ([2]; 2 h, brain, individual animals): 287.5 ng/g and 176.5 ng/g and 327.5 ng/g
- Plasma concentration, individual mice 1-3 ([2]; 2 h, plasma, individual animals): 50200 ng/mL and 17300 ng/mL and 20700 ng/mL
- Brain concentration, individual mice 1-3 ([2]; 4 h, brain, individual animals): 158 ng/g and 142.5 ng/g and 210 ng/g
- Plasma concentration, individual mice 1-3 ([2]; 4 h, plasma, individual animals): 19400 ng/mL and 23300 ng/mL and 33400 ng/mL
- Brain concentration, individual mice 1-3 ([2]; 7 h, brain, individual animals): 223 ng/g and 224.5 ng/g and 119 ng/g
- Plasma concentration, individual mice 1-3 ([2]; 7 h, plasma, individual animals): 9360 ng/mL and 9210 ng/mL and 2880 ng/mL
- Brain concentration, individual mice 1-3 ([2]; 24 h, brain, individual animals): BlQ and BLQ (2×)
- Plasma concentration, individual mice 1-3 ([2]; 24 h, plasma, individual animals): BLQ
- tissue level at time at 0.5 h ([2]; female, CD-1, mouse, mice, 0.5 h, brain, mean of 3): 182 ng/g
- level at 0.5 h ([2]; female, CD-1, mouse, mice, 0.5 h, plasma, mean of 3): 38200 ng/mL
- tissue level at time at 2 h ([2]; female, CD-1, mouse, mice, 2 h, brain, mean of 3): 264 ng/g
- level at 2 h ([2]; female, CD-1, mouse, mice, 2 h, plasma, mean of 3): 29400 ng/mL
- tissue level at time at 4 h ([2]; female, CD-1, mouse, mice, 4 h, brain, mean of 3): 170 ng/g
- level at 4 h ([2]; female, CD-1, mouse, mice, 4 h, plasma, mean of 3): 25400 ng/mL
- tissue level at time at 7 h ([2]; female, CD-1, mouse, mice, 7 h, brain, mean of 3): 189 ng/g
- level at 7 h ([2]; female, CD-1, mouse, mice, 7 h, plasma, mean of 3): 7150 ng/mL
- level at 24 h ([2]; female, CD-1, mouse, mice, 24 h, plasma, individual animals, read-out: Plasma concentration, individual mice 1-3): 15 ng/mL
